ChEMBL document CHEMBL5214921, “Bacterial type I signal peptidase inhibitors - Optimized hits from nature” (Eur J Med Chem, 2022)
Values after ≈ are worked out from the molar mass of the structure shown. Blank lines part the entries; values can stand above or below the compound they belong to. *1 amine or outer side, *2 acyl side, *3 side chain or, on linkers, in order; H or OH if unused. Where a SMILES comes first, the peptide text is derived from it. [ ]: non-standard residue; d: D form. The star is where a group is joined. X1 = C[C@H](N[*:1])C(=O)C(=O)[*:2]; NMeT = CN[C@H](C(=O)O)[C@@H](C)O; Decanoyl = CCCCCCCCCC(=O)*; βAla = NCCC(=O)O

What was measured:
Staphylococcus aureus [1] = test: Antibacterial activity against methicillin-resistant Staphylococcus aureus assessed as bacterial growth inhibition measured after 24 hrs; type: functional
Staphylococcus aureus [2] = test: Antibacterial activity against methicillin-resistant Staphylococcus aureus assessed as bacterial growth inhibition; type: functional
[3] = test system: Staphylococcus epidermidis; test: Antibacterial activity against Staphylococcus epidermidis ATCC 35984 assessed as bacterial cell growth inhibition measured after 18 hrs by CLSI based broth microdilution method; type: functional
Escherichia coli [4] = test: Antibacterial activity against Escherichia coli MG1655 assessed as bacterial cell growth inhibition measured after 18 hrs by CLSI based broth microdilution method; type: functional
Escherichia coli [5] = test: Antibacterial activity against Escherichia coli assessed as bacterial cell growth inhibition; type: functional
[6] = test system: Staphylococcus epidermidis; test: Antibacterial activity against Staphylococcus epidermidis assessed as bacterial cell growth inhibition; type: functional
[7] = Inhibition of Escherichia coli Signal peptidase I using decanoyl-k(DABCYL)-TPTAKAASKKD-D(EDANS)-NH2 as substrate by fluorescence-based analysis
[8] = Inhibition of Streptococcus pneumoniae Signal peptidase I using decanoyl-k(DABCYL)-TPTAKAASKKD-D(EDANS)-NH2 as substrate by fluorescence-based analysis
[9] = Inhibition of Staphylococcus aureus SpsB incubated for 15 mins by fluorescence based analysis
Staphylococcus aureus [10] = test: Antibacterial activity against Staphylococcus aureus NCTC 8325 assessed as bacterial cell growth inhibition by CLSI based broth microdilution method; type: functional
[11] = test system: Staphylococcus epidermidis; test: Antibacterial activity against Staphylococcus epidermidis assessed as bacterial cell growth inhibition by CLSI based broth microdilution method; type: functional
Pseudomonas aeruginosa [12] = test: Antibacterial activity against wild type Pseudomonas aeruginosa PA14 assessed as inhibition of bacterial growth; type: functional
Pseudomonas aeruginosa [13] = test: Antibacterial activity against wild type Pseudomonas aeruginosa PA14 assessed as inhibition of bacterial growth […] by CLSI based protocol; type: functional
Staphylococcus aureus [14] = test: Antibacterial activity against Staphylococcus aureus assessed as bacterial cell growth inhibition; type: functional
Escherichia coli [15] = test: Antibacterial activity against Escherichia coli ATCC 25922 assessed as bacterial cell growth inhibition; type: functional
Staphylococcus aureus [16] = test: Antibacterial activity against Staphylococcus aureus 8325 assessed as bacterial cell growth inhibition measured after 18 hrs by CLSI based broth microdilution method; type: functional
[17] = Inhibition of LepB (unknown origin); set-up: species or system Bacteria

Structure (SMILES): CNC(=O)c1cc(Oc2ccc(NC(=O)Nc3ccc(Cl)c(C(F)(F)F)c3)cc2)ccn1 [SORAFENIB]
- MIC (Staphylococcus aureus [1]): 3 µM (≈ 1.39 µg/mL)
- MIC (Staphylococcus aureus [2]): 1.39 µg/mL (≈ 2.99 µM)

- MIC [3]: 0.5 µM (≈ 0.441 µg/mL)
- MIC (Escherichia coli [4]): 16 µM (≈ 14.1 µg/mL)
- MIC (Escherichia coli [5]): 13.9 µg/mL (≈ 15.7 µM)
- MIC [6]: 0.43 µg/mL (≈ 0.488 µM)
Structure (SMILES): CCCCCCCCCCCCCCCC(=O)N(C)[C@H](CO)C(=O)N[C@H](C)C(=O)NCC(=O)N(C)[C@@H]1C(=O)N[C@@H](C)C(=O)N[C@H](C(=O)O)Cc2ccc(O)c(c2)-c2cc1ccc2O [ARYLOMYCIN C16]

- IC50 [7]: 110 nM
- IC50 [8]: 2400 nM
Structure (SMILES): CCCC(C)/C=C(/C)C(=O)OC(CCCCCCC/C=C/C(=O)NCCC(=O)N[C@@H](CS(=O)(=O)O)C(=O)N(C)[C@@H]1C(=O)N[C@@H](C)C(=O)N[C@H](C(=O)O)Cc2ccc(O)c(c2)-c2cc1cc(O)c2O[C@@H]1O[C@@H](C)[C@H](OS(=O)(=O)O)[C@@H](OS(=O)(=O)O)[C@H]1O)CCC(C)C (stereo partly drawn)

- IC50 [9]: 100 nM
Structure (SMILES): CCCCCCCCCC(=O)N[C@@H](CC(C)C)C(=O)N[C@H](C(=O)N1CCC[C@H]1C(=O)N(C)[C@H](C(=O)N[C@@H](C)C(=O)N[C@@H](CC(N)=O)C(=O)N[C@@H](C)C(=O)C(=O)NCCC(=O)N[C@@H](CC(=O)O)C(=O)O)[C@@H](C)O)[C@@H](C)O (Decanoyl-LTP[NMeT]AN[X1][βAla]D-OH)

- MIC (Staphylococcus aureus [10]): 16 µg/mL (≈ 17.4 µM)
- MIC [11]: 16 µg/mL (≈ 17.4 µM)
Structure (SMILES): C[C@@H]1NC(=O)[C@@H](N(C)C(=O)CNC(=O)[C@@H](C)NC(=O)[C@@H](CO)NC(=O)CCCCCCCCc2ccc(-c3ccccc3)cc2)c2ccc(O)c(c2)-c2cc(ccc2O)C[C@@H](C(=O)O)NC1=O

- MIC (Pseudomonas aeruginosa [12]): 1.81 µg/mL (≈ 2 µM)
- MIC (Pseudomonas aeruginosa [13]): 2 µM (≈ 1.81 µg/mL)
Structure (SMILES): Cc1nc(-c2ccc(C(C)(C)C)cc2)nc(C)c1C(=O)N[C@@H](CCN)C(=O)N(C)[C@@H]1C(=O)N[C@@H](C)C(=O)N[C@H](C(=O)NCC#N)Cc2cc(OCCN)cc(c2)-c2cc1ccc2OCCN

- MIC (Pseudomonas aeruginosa [12]): 1.78 µg/mL (≈ 2 µM)
- MIC (Staphylococcus aureus [14]): 0.06 µg/mL (≈ 0.0674 µM)
- MIC (Pseudomonas aeruginosa [13]): 2 µM (≈ 1.78 µg/mL)
- MIC [6]: 0.25 µg/mL (≈ 0.281 µM)
- MIC (Escherichia coli [15]): 0.125 µg/mL (≈ 0.14 µM)
Structure (SMILES): Cc1nc(-c2ccc(C(C)(C)C)cc2)ncc1C(=O)N[C@@H](CCN)C(=O)N(C)[C@@H]1C(=O)N[C@@H](C)C(=O)N[C@H](C(=O)NCC#N)Cc2cc(OCCN)cc(c2)-c2cc1ccc2OCCN

- MIC (Staphylococcus aureus [16]): > 128 µM
- MIC [3]: 1 µM (≈ 0.825 µg/mL)
- MIC (Escherichia coli [4]): > 128 µM
- MIC (Escherichia coli [5]): 104 µg/mL (≈ 126 µM)
- MIC (Staphylococcus aureus [14]): 104 µg/mL (≈ 126 µM)
- MIC [6]: 0.81 µg/mL (≈ 0.982 µM)
Structure (SMILES): CC(C)CCCCCCCCC(=O)N(C)[C@H](CO)C(=O)N[C@H](C)C(=O)NCC(=O)N(C)[C@@H]1C(=O)N[C@@H](C)C(=O)N[C@H](C(=O)O)Cc2ccc(O)c(c2)-c2cc1ccc2O [ARYLOMYCIN A2]

Structure (SMILES): O=C(Nc1ccc2c(c1)OC(F)(F)O2)Nc1ccc(Cl)c(C(F)(F)F)c1
- MIC (Staphylococcus aureus [1]): 0.3 µM (≈ 0.118 µg/mL)
- MIC (Staphylococcus aureus [2]): 0.12 µg/mL (≈ 0.304 µM)

- IC50 [17]: 180 nM
Structure (SMILES): C=CCOC(=O)C1=CS[C@H]2[C@@H]([C@@H](C)O)C(=O)N12

- IC50 [17]: 70 nM
Structure (SMILES): C=CCOC(=O)C1=CS[C@H]2[C@@H]([C@@H](C)OC(C)=O)C(=O)N12
